One series can be described thus: in vivo. Particulars: Wistar, rat, po.
A short description of series [1]: In vivo pharmacokinetic study in Beagle dogs. Particulars: dog, Beagle dogs (n=6).

Data on one compound can be found in US20260240784A1, “PHARMACEUTICAL COMPOSITIONS WITH IMPROVED DISSOLUTION” (Applied Materials, Inc., priority 2023, published 2026).

Where two headings read alike, the source gives them in different places.

For orientation: AUC means concentration integrated over time. A lower AUC goes with low exposure. The Cmax is the peak of the concentration-time curve. In general, Tmax refers to the time at which the peak concentration occurs. Regarding `CC(C)OC(=O)C(C)(C)Oc1ccc(C(=O)c2ccc(Cl)cc2)cc1` [uncoated particles, fenofibrate], in “in vivo”, the AUC is 149000 ng·h/mL. Further, the Cmax amounted to 12000 ng/mL in “in vivo”; 497 ng/mL in series [1] (read-out: Cmax, Arithmetic Mean); 430 ng/mL in series [1] (read-out: Cmax, Geometric Mean). Further, the Tmax in the series “in vivo” was determined as 4 h. The AUC(0-t) stood at 8690 ng·h/mL in series [1] (read-out: AUC0-t, Arithmetic Mean) and 7800 ng·h/mL in series [1] (read-out: AUC0-t, Geometric Mean).
